Assay results taken from patent publication US8853353B2, “Membrane type-1 matrix metalloprotein inhibitors and uses thereof” (Angiochem, Inc., priority 2008, dated 2014).

How the values were obtained:
[1] = system: Fibrosarcoma cells implanted subcutaneously; conditions: 10 mg/kg daily subcutaneous
Method: Fibrosarcoma cells were implanted subcutaneously into the flank of athymic nude mice. […] Mice were given daily subcutaneous administrations of 10 mg/kg of peptides or vehicle.

[2] = system: GST-MT1-MMP cytoplasmic tail fusion protein (GST-MT); conditions: recombinant Src kinase, ATP, western blot
Method: The GST-MT1-MMP cytoplasmic tail fusion protein (GST-MT) was incubated with recombinant Src kinase in the presence of ATP and the phosphorylation products were analyzed by western blotting.

[3] = system: breast adenocarcinoma cells (MDA-MB-231); conditions: breast cancer cells, 3D collagen gel
Method: (§1) Different tumor cell lines were incubated with the peptides and grown atop of a collagen film (2D) or within a collagen gel (3D).

[4] = system: medulloblastoma cells (DAOY); conditions: 3D collagen gel
Method: as §1

[5] = system: osteosarcoma cells (MG-63); conditions: bone cancer cells, 3D collagen gel
Method: as §1

[6] = system: glioblastoma cells (U-87); conditions: 3D collagen gel
Method: as §1

[7] = system: fibrosarcoma cells (HT-1080); conditions: 3D collagen gel
Method: as §1

tumor cell lines = conditions: grown atop of a collagen film (2D)
Method: as §1

[8] = system: prostate adinocarcinoma cells (PC-3); conditions: prostate cancer cells, 3D collagen gel
Method: as §1

Substance | tumors completely regressed and totally disappeared [1] [%] | reduction of tumor growth ([1]; 26 days post-implantation) [%] | inhibition of Src-mediated tyrosine phosphorylation of GST-MT [2] | inhibition of 3D proliferation [3] | reduction of proliferation in 3D matrix [4] | inhibition of 3D proliferation [5] | reduction of proliferation in 3D matrix [6] | inhibition of 3D proliferation [7] | effect on tumor cell proliferation in 2D conditions (tumor cell lines) | inhibition of 3D proliferation [8]
Biotin-Ahx-RQIKIWFQNRRMKWKK-RRHGTPRRLLFCQRSLLDKV [ACM-14] | 17 | 70 | completely inhibited | inhibits | 35% | inhibits | 50% | inhibits | does not affect | inhibits
Biotin-Ahx-RQIKIWFQNRRMKWKK-TLRQRRCLPHFDSGLRKVRL [scACM-14, reference compound] | – | – | not observed | – | no effect | – | no effect | – | – | –
